From US20230365959A1, “METHOD FOR IMPROVING THE STABILITY OF A COMPOSITION COMPRISING A FLAVIN-DEPENDENT LACTATE DEHYDROGENASE” (KIKKOMAN CORPORATION, priority 2020, published 2023) come the findings set out here.

Format in all cases: biochemical
The test system of experiment [1] is lactate dehydrogenase from Pichia kudriavzevii (PkLDH). The experiment is described as follows: Thermal stability of PkLDH (residual activity ratio after heat treatment, potassium phosphate buffer). Particulars: PkLDH 2 U/mL. The method, then:
Thermal stability of LDH can be evaluated by heating LDH at a given temperature for a given time and comparing the activity thereof before and after heating. […] The LDH activity of an LDH solution which is allowed to stand still on ice without heating is taken as 100 and the LDH activity after heating is calculated and, the residual activity ratio (ratio of remaining activity) (%) can be determined.
More specifically, the residual activity ratio (%) can be obtained by measuring LDH activity value (a) of a solution before heat treatment or before long-term storage and LDH activity value (b) of a solution after heat treatment or after long-term storage and calculating ((b)/(a)×100).
Using the purified PkLDH preparation obtained above, the residual activity ratio (%) in the presence and absence of an LDH stabilizer were compared in accordance with the LDH thermal stability evaluation method mentioned previously, and in this manner, a stabilizer was searched.
(§1) The thermal stability of LDH was evaluated by heating LDH at a given temperature for a given time and comparing the activities before and after heating. […] Further, LDH activity of an LDH solution allowed to stand still on ice without any heat treatment was measured. Based on the activity of this case without any heat treatment taken as 100, the activities of LDH solutions after heat treatment were calculated to determine the residual activity ratio (%). More specifically, the residual activity ratio (%) can be obtained by measuring LDH activity value (a) of a solution before heat treatment or before long-term storage, and LDH activity value (b) of a solution after heat treatment or after long-term storage, and then, calculating ((b)/(a)×100).
The degree of LDH stability improving effect of each of the various added compounds was evaluated by preparing an LDH solution by allowing LDH to coexist with each of the various compounds, subjecting the solution to a heat treatment and determining the residual activity ratio (%) of the solution, and evaluating the residual activity (%) by mutually comparing the cases between compounds or comparing the case to a case where no compound was added.
(§2) The activity of LDH was determined in accordance with the following procedure. […] Subsequently, a 30 mM PMS solution (50 μL) and an enzyme sample solution (50 μL) were added to the mixture to initiate a reaction. Absorbance at 520 nm was measured at the time of initiation of the reaction and over time and, the degree of reduction (ΔA520) in absorbance per minute as the enzymatic reaction progresses was obtained and LDH activity was calculated in accordance with the following Mathematical formula 2. Here, LDH activity is expressed by an enzyme (LDH) unit, and 1U is defined as the amount of the enzyme that can reduce 1 μmol DCIP per minute at 37° C. in the presence of 10 mM L-lactate.
The pH of the PkLDH solution was adjusted to be 7.5 after each of the compounds was added. Heat treatment was carried out at 55° C. for 15 minutes. As a comparative example, an LDH solution prepared without adding any compound was subjected to the same experiment. It should be noted that, unless specified otherwise, the reagents used herein were all purchased from Tokyo Chemical Industry Co., Ltd. […]

For experiment [2], the system named is lactate dehydrogenase from Candida inconspicua (CaLDH). In words: Thermal stability of CaLDH (residual activity ratio after heat treatment). Particulars: CaLDH 2 U/mL; added compound 300 mM; potassium phosphate buffer pH 7.5; 50°C for 15 minutes. The method, then:
as §1, §2
Stability evaluation tests were conducted to check the improvement effect of malic acid on the stability of various LDHs. […] Each of these diluted enzyme solutions (a mixture of an enzyme and L-malic acid, LDH concentration: 2 U/mL, L-malic acid concentration: 300 mM) was heated in accordance with the thermal-stability evaluation method described in Section 4. More specifically, PkLDH was treated at 55° C., whereas, CaLDH and OgLDH were treated at 50° C. for 15 minutes and then the residual activity ratio (%) was calculated, based on the activity before heating taken as 100. […]

The subject of experiment [3] is lactate dehydrogenase from Ogataea parapolymorpha (OgLDH). The experiment is described as follows: Thermal stability of OgLDH (residual activity ratio after heat treatment). Particulars: OgLDH 2 U/mL, potassium phosphate buffer pH 7.5, 50°C for 15 minutes. The method, then:
as §1, §2
Stability evaluation tests were conducted to check the improvement effect of malic acid on the stability of various LDHs. […] Each of these diluted enzyme solutions (a mixture of an enzyme and L-malic acid, LDH concentration: 2 U/mL, L-malic acid concentration: 300 mM) was heated in accordance with the thermal-stability evaluation method described in Section 4. More specifically, PkLDH was treated at 55° C., whereas, CaLDH and OgLDH were treated at 50° C. for 15 minutes and then the residual activity ratio (%) was calculated, based on the activity before heating taken as 100. As a comparative example, a sample without adding any L-malic acid in the enzyme diluent was subjected to the same experiment, and the ratio of residual activity in both cases were compared.
Using the purified OgLDH preparation obtained above, the ratios of remaining activities (%) in the presence and absence of a LDH stabilizer were compared in accordance with the LDH thermal stability evaluation method described in Section 4. In this manner, a stabilizer was searched.
The pH of the LDH solution was adjusted to be 7.5 after each of the compounds was added. Heat treatment was carried out at 50° C. for 15 minutes.

Experiment [4] has as its target T1, lactate dehydrogenase from Saccharomyces cereviciae (ScLDH) (Saccharomyces cerevisiae, UniProt P00175).
T1 construct: made in house; host or cells: Escherichia coli BL21 (pKK223-3-ScLDH); unpurified supernatant of crushed cells
T1 sequence (P00175 86-591): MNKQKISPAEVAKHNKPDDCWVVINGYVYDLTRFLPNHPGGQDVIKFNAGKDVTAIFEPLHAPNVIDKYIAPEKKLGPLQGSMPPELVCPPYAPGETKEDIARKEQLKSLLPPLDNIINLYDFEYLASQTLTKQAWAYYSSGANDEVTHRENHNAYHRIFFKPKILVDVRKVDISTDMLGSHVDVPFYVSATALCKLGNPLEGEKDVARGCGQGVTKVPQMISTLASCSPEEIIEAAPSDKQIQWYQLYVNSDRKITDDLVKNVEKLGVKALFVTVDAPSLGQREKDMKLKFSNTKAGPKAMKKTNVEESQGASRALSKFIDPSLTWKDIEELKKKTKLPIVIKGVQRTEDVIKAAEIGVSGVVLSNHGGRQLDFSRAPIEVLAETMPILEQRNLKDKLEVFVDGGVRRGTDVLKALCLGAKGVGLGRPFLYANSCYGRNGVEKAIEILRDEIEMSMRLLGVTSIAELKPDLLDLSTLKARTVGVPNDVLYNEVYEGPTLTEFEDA
The experiment is described as follows: Thermal stability of ScLDH (supernatant of crushed bacterial cells). Particulars: ScLDH 2 U/mL; compound 300 mM; potassium phosphate buffer pH 7.5; 40°C for 15 minutes. On the procedure:
as §1, §2
Using the supernatant of a solution comprising crushed ScLDH bacterial cells obtained above, the ratios of remaining activities (%) in the presence and absence of a LDH stabilizer were compared in accordance with the LDH thermal stability evaluation method described in Section 4. In this manner, a stabilizer was searched.
The pH of the LDH solution was adjusted to be 7.5 after each of the compounds was added. Heat treatment was carried out at 40° C. for 15 minutes.

The subject of experiment [5] is lactate dehydrogenase from Pichia kudriavzevii (PkLDH). The experiment is described as follows: Thermal stability of PkLDH in 150 mM HEPES buffer. Particulars: PkLDH 2 U/mL, 150 mM HEPES buffer pH 7.5, 55°C for 15 minutes. On the procedure: as §1
The activity of LDH was determined in accordance with the following procedure. […] Subsequently, a 30 mM PMS solution (50 μL) and an enzyme sample solution (50 μL) were added to the mixture to initiate a reaction. Absorbance at 520 nm was measured at the time of initiation of the reaction and over time and, the degree of reduction (ΔA520) in absorbance per minute as the enzymatic reaction progresses was obtained and LDH activity was calculated in accordance with the following Mathematical formula 2. […]

The test system is the same in experiment [6]. In words: Chronoamperometry with printed electrode to which PkLDH plus stabilizer was applied and dried (2 mM mPMS/PBS). Particulars: added compound 50 mM, LDH 1 U dried at 40°C for 60 minutes, +200 mV. On the procedure: An enzyme electrode was prepared using the purified PkLDH preparation obtained above and chronoamperometry was carried out. Each of the compounds was added to an enzyme solution in advance and tested whether or not a stabilizing effect of the enzyme during a drying step was exerted. LDH (1 U) solutions comprising compounds in a concentration (0.2% (w/v), 2% (w/v) and 50 mM, respectively) as described in Table 8 were each applied to a screen-printed carbon electrode C110 (manufactured by Metrohm-Dropsens) in an amount of 4 μL and dried at 40° C. for 60 minutes. The same procedure was repeated using an LDH solution without adding any one of the compounds. Each of the electrodes prepared was connected to ALS electrochemical analyzer 814D (manufactured by BAS) using a dedicated connector (DRP-CAC, manufactured by Drop Sense). Subsequently, 100 μL of a 2 mM mPMS/PBS solution was added dropwise to dissolve the dried LDH. The applied voltage was +200 mV (vs Ag/Ag+). An L-sodium lactate solution was added and a response current value 5 seconds after initiation of measurement was recorded. […] Then, an L-sodium lactate solution was added such that the final concentration thereof would be 2 to 10 mM, and a response current value 5 seconds after initiation of measurement was recorded.

Molecules are shown by their SMILES.

Consider `O=C(O)C[C@H](O)C(=O)O` [L-malic acid], for which the “Residual activity ratio (%)” value in experiment [1] (added compound 300 mM, 150 mM potassium phosphate buffer pH 7.5, 0.15% BSA, 55°C for 15 minutes) came to 80%; in experiment [1] (final concentration of malic acid 10 mM, 55°C for 15 min), 36%; in experiment [1] (final concentration of malic acid 30 mM, 55°C for 15 min), 44%; in experiment [1] (final concentration of malic acid 100 mM, 55°C for 15 min), 52%; in experiment [1] (final concentration of malic acid 500 mM, 55°C for 15 min), 90%; in experiment [5] (added compound 300 mM), 100%. Also, the “Residual activity ratio (%) CaLDH” value in experiment [2] is 45%. Besides, the “Residual activity ratio (%) OgLDH” value in experiment [3] (added compound 300 mM) stood at 88%. For the same compound, the “stability improving effect on ScLDH” value in experiment [4] was found to be 41%.

Regarding `O=C([O-])CC(=O)[O-].[Na+].[Na+]` [disodium malonate], in experiment [3] (compound 300 mM), the “LDH stability improving effect” value is recorded as 96%. In experiment [4], the “stability improving effect on ScLDH” value was 26%. Moreover, the “Residual activity ratio (%)” value in experiment [5] (added compound 350 mM) was determined as 101%. Also, the “Current value 5 seconds later (μA), 0 mM lactate” value in experiment [6] (0 mM lactate) is recorded as 0.21 μA. For the same compound, the “Current value 5 seconds later (μA), 2 mM lactate” value in experiment [6] (2 mM lactate) was 61.8 μA.
